Test results published in patent US20260092074A1, “Annelated Pyridines as Steroidogenesis Inhibitors, Preparation Method and Use Thereof” (Guangzhou Vinnocent Pharmaceutical Limited, priority 2022, published 2026).

Tests used:
human CYP11B1 = biological target: T1, human CYP11B1 (Homo sapiens, UniProt P15538); experiment: Inhibition of hCYP11B1 in transfected V79 cells; format: cell-based; details: hamster V79 cells expressing human CYP11B1; substrate 11-deoxycortisol 200 nM
T1 construct: expressed in transfected cells
T1 sequence (P15538 25-503): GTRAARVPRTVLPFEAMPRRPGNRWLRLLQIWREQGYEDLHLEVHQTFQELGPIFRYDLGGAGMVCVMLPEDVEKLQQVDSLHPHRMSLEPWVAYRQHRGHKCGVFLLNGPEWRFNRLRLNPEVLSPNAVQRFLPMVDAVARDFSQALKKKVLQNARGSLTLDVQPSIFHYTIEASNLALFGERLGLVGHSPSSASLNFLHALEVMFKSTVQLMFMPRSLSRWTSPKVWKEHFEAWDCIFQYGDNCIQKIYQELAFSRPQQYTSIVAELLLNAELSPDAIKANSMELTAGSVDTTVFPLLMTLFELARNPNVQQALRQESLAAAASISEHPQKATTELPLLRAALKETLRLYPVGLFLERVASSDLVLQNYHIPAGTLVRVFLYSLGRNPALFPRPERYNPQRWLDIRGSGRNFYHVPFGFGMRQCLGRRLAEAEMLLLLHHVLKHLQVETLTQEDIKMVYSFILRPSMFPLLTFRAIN
Procedure: (§1) Genes of human CYP11B1 and rat NADPH-P450 reductase were transfected into hamster V79 cells using a lentivirus vector, and stably-expressing cell lines were selected by taking advantages of the associated puromycin-resistance gene. Cultured cells were diluted and seeded in a 96-well plate with an amount of approximately 10,000 per well. After pre-incubation with suitable concentrations of the test compounds for 2 hours, 11-deoxycortisol of 200 nM was added as the substrate to initiate the catalytic reaction. After further incubation for 30 minutes, it was quenched with ethyl acetate. Subsequently, the substrate and product(s) were quantified using LC-MS/MS or HPLC at 260 nm, and the IC50 values were calculated according to inhibitory percentage.

human CYP11B2 = biological target: T2, human CYP11B2 (Homo sapiens, UniProt P19099); experiment: Inhibition of hCYP11B2 in transfected V79 cells; format: cell-based; details: hamster V79 cells expressing human CYP11B2; substrate 11-deoxycorticosterone 200 nM
T2 construct: expressed in transfected cells
T2 sequence (P19099 25-503): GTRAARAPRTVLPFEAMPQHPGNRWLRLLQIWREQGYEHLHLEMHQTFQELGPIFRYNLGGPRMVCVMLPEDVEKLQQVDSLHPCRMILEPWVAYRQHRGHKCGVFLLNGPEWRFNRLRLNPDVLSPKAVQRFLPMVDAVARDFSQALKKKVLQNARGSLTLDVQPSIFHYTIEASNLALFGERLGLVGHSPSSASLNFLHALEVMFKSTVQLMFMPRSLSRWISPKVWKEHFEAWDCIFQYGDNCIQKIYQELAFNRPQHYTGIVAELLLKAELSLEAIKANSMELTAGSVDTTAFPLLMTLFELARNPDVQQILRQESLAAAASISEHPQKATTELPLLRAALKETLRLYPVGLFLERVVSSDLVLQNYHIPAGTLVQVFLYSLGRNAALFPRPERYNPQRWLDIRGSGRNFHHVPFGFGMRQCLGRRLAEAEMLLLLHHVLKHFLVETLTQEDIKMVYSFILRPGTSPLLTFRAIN
Procedure: as §1, with “CYP11B2” for “CYP11B1”, “11-deoxycorticosterone” for “11-deoxycortisol”

Row | IC50 (human CYP11B1) [nM] | IC50 (human CYP11B2) [nM] | SMILES
1 | 2950 | 46 | COc1ccc(C(=O)N2CCc3c(-c4cc5cc(C#N)ccc5o4)cncc32)cc1 [C79, 2-(1-(4-Methoxybenzoyl)-2,3-dihydro-1H-pyrrolo[2,3-c]pyridin-4-yl)benzofuran-5-carbo nitrile]
2 | 476 | 22 | O=C(C1CN(Cc2cccc(F)c2)C1)N1CCc2c(-c3cc4cc(Cl)ccc4[nH]3)cncc21 [C80, (4-(5-Chloro-1H-indol-2-yl)-2,3-dihydro-1H-pyrrolo[2,3-c]pyridin-1-yl)(1-(3-fluorobenzyl)azetidin-3-yl)methanone]
3 | 438 | 15 | N#Cc1ccc2[nH]c(-c3cncc4c3CCN4C(=O)C3CN(Cc4cccc(F)c4)C3)cc2c1 [C81, 2-(1-(1-(3-Fluorobenzyl)azetidine-3-carbonyl)-2,3-dihydro-1H-pyrrolo[2,3-c]pyridin-4-yl)-1H-indole-5-carbonitrile]
4 | 537 | 3 | COc1cccc(C(=O)N2CCc3c(C4=CCN(C#N)CC4)cncc32)c1 [C82, 4-(1-(3-Methoxybenzoyl)-2,3-dihydro-1H-pyrrolo[2,3-c]pyridin-4-yl)-3,6-dihydropyridine-1 (2H)-carbonitrile]
5 | 672 | 6 | COc1cccc(C(=O)N2CCc3c(N4CCN(C#N)CC4)cncc32)c1 [C83, 4-(1-(3-Methoxybenzoyl)-2,3-dihydro-1H-pyrrolo[2,3-c]pyridin-4-yl)piperazine-1-carbonitrile]
6 | 0.5 | 0.5 | N#Cc1ccc(-c2cncc3c2ccn3S(=O)(=O)c2ccc([N+](=O)[O-])cc2)cc1 [E1, 4-(1-((4-Nitrophenyl)sulfonyl)-1H-pyrrolo[2,3-c]pyridin-4-yl)benzonitrile]
7 | 0.4 | 0.5 | Cc1ccc(S(=O)(=O)n2ccc3c(-c4ccc(C#N)cc4)cncc32)cc1 [E2, 4-(1-Tosyl-1H-pyrrolo[2,3-c]pyridin-4-yl)benzonitrile]
8 | 0.3 | 0.4 | N#Cc1ccc(-c2cncc3c2ccn3S(=O)(=O)c2ccccc2)cc1 [E3, 4-(1-(Phenylsulfonyl)-1H-pyrrolo[2,3-c]pyridin-4-yl)benzonitrile]
9 | 0.3 | 0.4 | Cc1cccc(S(=O)(=O)n2ccc3c(-c4ccc(C#N)cc4)cncc32)c1 [E4, 4-(1-(m-Tolylsulfonyl)-1H-pyrrolo[2,3-c]pyridin-4-yl)benzonitrile]
10 | 0.6 | 0.3 | N#Cc1ccc(-c2cncc3c2ccn3S(=O)(=O)c2cccc(C(F)(F)F)c2)cc1 [E5, 4-(1-((3-(Trifluoromethyl)phenyl)sulfonyl)-1H-pyrrolo[2,3-c]pyridin-4-yl)benzonitrile]

Second part, the molecule before the results:

Row | SMILES | IC50 (human CYP11B1) [nM] | IC50 (human CYP11B2) [nM]
11 | O=C(c1ccccc1F)N1CCc2c(-c3cc4ccccc4[nH]3)cncc21 [C59, (4-(1H-indol-2-yl)-2,3-dihydro-1H-pyrrolo[2,3-c]pyridin-1-yl)(2-fluorophenyl)methanone] | 2740 | 131
12 | O=C(c1ccccc1F)N1CCc2c(-c3cc4ccccc4o3)cncc21 [C60, (4-(Benzofuran-2-yl)-2,3-dihydro-1H-pyrrolo[2,3-c]pyridin-1-yl)(2-fluorophenyl)methanone] | > 10000 | 152
13 | O=C(c1ccccc1F)N1CCc2c(-c3cc4ccccc4s3)cncc21 [C61, (4-(Benzo[b]thiophen-2-yl)-2,3-dihydro-1H-pyrrolo[2,3-c]pyridin-1-yl)(2-fluorophenyl)methanone] | 1350 | 216
14 | O=C(c1ccccc1F)N1CCc2c(-c3ccc4[nH]ccc4c3)cncc21 [C62, (4-(1H-indol-5-yl)-2,3-dihydro-1H-pyrrolo[2,3-c]pyridin-1-yl)(2-fluorophenyl)methanone] | 512 | 30
15 | O=C(c1ccccc1F)N1CCc2c(-c3ccc4occc4c3)cncc21 [C63, (4-(Benzofuran-5-yl)-2,3-dihydro-1H-pyrrolo[2,3-c]pyridin-1-yl)(2-fluorophenyl)methanone] | 1820 | 113
16 | Cc1ccccc1CC(=O)N1CCc2c(-c3ccc(C#N)cc3)cncc21 [C64, 4-(1-(2-(o-Tolyl)acetyl)-2,3-dihydro-1H-pyrrolo[2,3-c]pyridin-4-yl)benzonitrile] | 258 | 5.3
17 | N#Cc1ccc(-c2cncc3c2CCN3C(=O)Cc2ccccc2Br)cc1 [C65, 4-(1-(2-(2-Bromophenyl)acetyl)-2,3-dihydro-1H-pyrrolo[2,3-c]pyridin-4-yl)benzonitrile] | 292 | 7.6
18 | Cc1cccc(CC(=O)N2CCc3c(-c4ccc(C#N)cc4)cncc32)c1 [C66, 4-(1-(2-(m-Tolyl)acetyl)-2,3-dihydro-1H-pyrrolo[2,3-c]pyridin-4-yl)benzonitrile] | 92 | 0.9
19 | N#Cc1ccc(-c2cncc3c2CCN3C(=O)Cc2ccccc2F)cc1 [C67, 4-(1-(2-(2-Fluorophenyl)acetyl)-2,3-dihydro-1H-pyrrolo[2,3-c]pyridin-4-yl)benzonitrile] | 277 | 6.5
20 | COc1cccc(CC(=O)N2CCc3c(-c4ccc(C#N)cc4)cncc32)c1 [C68, 4-(1-(2-(3-Bethoxyphenyl)acetyl)-2,3-dihydro-1H-pyrrolo[2,3-c]pyridin-4-yl)benzonitrile] | 26 | 0.7
21 | N#Cc1ccc(-c2cncc3c2CCN3C(=O)Cc2ccc(F)cc2)cc1 [C69, 4-(1-(2-(4-Fluorophenyl)acetyl)-2,3-dihydro-1H-pyrrolo[2,3-c]pyridin-4-yl)benzonitrile] | 134 | 2.4
22 | N#Cc1ccc(-c2cncc3c2CCN3C(=O)Cc2ccccc2[N+](=O)[O-])cc1 [C70, 4-(1-(2-(2-Nitrophenyl)acetyl)-2,3-dihydro-1H-pyrrolo[2,3-c]pyridin-4-yl)benzonitrile] | 108 | 12
23 | N#Cc1ccc(-c2cncc3c2CCN3C(=O)Cc2cccc(Cl)c2)cc1 [C71, 4-(1-(2-(3-Chlorophenyl)acetyl)-2,3-dihydro-1H-pyrrolo[2,3-c]pyridin-4-yl)benzonitrile] | 28 | 2
24 | Cc1ccc(CC(=O)N2CCc3c(-c4ccc(C#N)cc4)cncc32)cc1 [C72, 4-(1-(2-(p-Tolyl)acetyl)-2,3-dihydro-1H-pyrrolo[2,3-c]pyridin-4-yl)benzonitrile] | 51 | 6.8
25 | N#Cc1ccc(-c2cncc3c2CCN3C(=O)Cc2ccc(Br)cc2)cc1 [C73, 4-(1-(2-(4-Bromophenyl)acetyl)-2,3-dihydro-1H-pyrrolo[2,3-c]pyridin-4-yl)benzonitrile] | 124 | 11
26 | N#Cc1ccc(-c2cncc3c2CCN3C(=O)Cc2cccc(C(F)(F)F)c2)cc1 [C74, 4-(1-(2-(3-(Trifluoromethyl)phenyl)acetyl)-2,3-dihydro-1H-pyrrolo[2,3-c]pyridin-4-yl)benzonitrile] | 53 | 9
27 | N#Cc1ccc(-c2cncc3c2CCN3C(=O)Cc2ccc(C(F)(F)F)cc2)cc1 [C75, 4-(1-(2-(4-(Trifluoromethyl)phenyl)acetyl)-2,3-dihydro-1H-pyrrolo[2,3-c]pyridin-4-yl)benzonitrile] | 111 | 35
28 | COc1ccc(CC(=O)N2CCc3c(-c4ccc(C#N)cc4)cncc32)cc1 [C76, 4-(1-(2-(4-Methoxyphenyl)acetyl)-2,3-dihydro-1H-pyrrolo[2,3-c]pyridin-4-yl)benzonitrile] | 62 | 9
29 | N#Cc1ccc(-c2cncc3c2CCN3C(=O)Cc2ccc(Cl)cc2)cc1 [C77, 4-(1-(2-(4-Chlorophenyl)acetyl)-2,3-dihydro-1H-pyrrolo[2,3-c]pyridin-4-yl)benzonitrile] | 376 | 8
